These results are taken from ChEMBL document CHEMBL3351490, “The discovery of potent, orally bioavailable pyrimidine-5-carbonitrile-6-alkyl CXCR2 receptor antagonists” (Bioorg Med Chem Lett, 2014).

Data set [1] concerns the target T1, C-X-C chemokine receptor type 2 (Homo sapiens) (UniProt P25025).
T1 sequence (whole entry): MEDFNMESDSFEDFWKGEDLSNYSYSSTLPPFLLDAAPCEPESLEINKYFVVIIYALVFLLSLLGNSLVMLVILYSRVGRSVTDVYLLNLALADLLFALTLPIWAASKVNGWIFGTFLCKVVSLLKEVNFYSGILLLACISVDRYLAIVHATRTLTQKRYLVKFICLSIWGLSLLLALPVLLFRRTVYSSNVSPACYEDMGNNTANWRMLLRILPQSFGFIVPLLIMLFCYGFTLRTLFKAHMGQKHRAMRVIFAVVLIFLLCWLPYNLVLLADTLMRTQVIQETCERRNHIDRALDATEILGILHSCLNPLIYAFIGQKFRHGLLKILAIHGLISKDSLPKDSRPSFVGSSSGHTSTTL
Nature of the data set: Antagonist activity against human recombinant CXCR2 receptor expressed in CHO cell membranes at 10 uM by SPA based [35S]GTPgammaS binding assay. The data set is classed as functional. On the technique in general: GTPγS is a poorly hydrolysed GTP analogue; its binding reports G protein activation.

For data set [2], the target named is T2, C-X-C chemokine receptor type 2 (Homo sapiens, UniProt P25025).
T2 sequence (P25025 whole entry): T1 sequence (whole entry)
Description: Antagonist activity against human recombinant CXCR2 receptor expressed in CHO cell membranes by SPA based [35S]GTPgammaS binding assay. The data set is classed as functional.

The target in data set [3] is T2, C-X-C chemokine receptor type 2. Description: Displacement of [125I]-GRO-alpha from human recombinant CXCR2 receptor expressed in CHO cell membranes.
A short description of data set [4]: Oral bioavailability in rat. In kind it is ADME, organism-based. The settings on record: in vivo.
Data set [5] in a line: Protein binding in rat plasma. The settings on record: read-out: PPB. The data set is classed as ADME, cell-free.
Data set [6] can be described thus: Equilibrium solubility at pH 6.8. In kind it is physicochemical. The settings on record: buffer.
Data set [7] is described as follows: Dissociation constant, pKa of the compound. In kind it is physicochemical.
The nature of data set [8]: Half life in iv dosed rat. In kind it is ADME, organism-based. The settings on record: in vivo.
Data set [9] is described as follows: Volume of distribution at steady state in iv dosed rat. The data set is classed as ADME, organism-based. The settings on record: in vivo, read-out: Vdss.
Data set [10] in a line: Clearance in iv dosed rat. The data set is classed as ADME, organism-based. The settings on record: in vivo.

In brackets after ≈: the same amount, converted by molar mass.

What is called inhibition is the change of the read-out against control, counted positive when it falls. The term IC50 denotes the point on the concentration scale where inhibition reaches its midpoint. The term bioavailability denotes dose-corrected exposure relative to a reference, in per cent. In general, thermodynamic solubility refers to the concentration in solution at equilibrium with solid. As a reminder, the pKa is the pH at which an ionisable group is half protonated. Lower therefore signals a stronger acid or weaker base. A word on the half-life: it is how long it takes for the measured level to halve. A higher half-life goes with slow decline. Usually clearance stands for a measure of how efficiently the substance is removed, as volume per time.

With `N#Cc1c(O)nc(SCc2cccc(F)c2F)nc1C1CCCC1`, in data set [1], the inhibition is greater than 50%. For the same compound, the IC50 in [2] was 4900 nM. With `CCOC(=O)[C@H]1C[C@@H]1c1nc(SCc2cccc(F)c2F)nc(O)c1C#N` (stereo in doubt; form 2), the IC50 in data set [2] was 1300 nM.

As to `N#Cc1c(O)nc(CSc2ccccc2)nc1C1CC1`, the IC50 in data set [2] is greater than 30000 nM. Turning to `N#Cc1c(O)nc(SCc2c(Cl)cccc2Cl)nc1-c1ccccc1`, the IC50 in data set [3] is 4300 nM; in data set [2] it was greater than 30000 nM. For the compound `N#Cc1c(O)nc(SCc2cccc(F)c2F)nc1[C@H]1C[C@@H]1C(N)=O`, in data set [2], the half-maximal inhibitory concentration (IC50) was 7 nM. For `Oc1nc(SCc2cccc(F)c2F)nc(C2CC2)c1I`, the half-inhibitory concentration (IC50) in data set [2] was determined as 3200 nM. As to `CS(=O)(=O)Nc1nc(SCc2cccc(F)c2F)nc(-c2ccccc2)c1C#N`, in data set [2], the IC50 is greater than 30000 nM. In the case of `N#Cc1c(O)nc(SCc2cccc(F)c2F)nc1[C@H]1C[C@@H]1CO`, in data set [2], the IC50 came out at 6 nM. `Oc1nc(SCc2cccc(F)c2F)nc(C2CC2)c1Br`: in data set [2], the IC50 was 1400 nM. The same measure, in the same setting: as for `N#Cc1c(O)nc(SCc2cccc(F)c2F)nc1[C@H]1C[C@@H]1C(=O)O`, the figure is 10 nM. With `N#Cc1c(O)nc(SCc2cccc(F)c2F)nc1-c1ccc(O)cc1`, the inhibition in [1] is greater than 50%. The half-inhibitory concentration (IC50) in data set [2] was 780 nM. Regarding `N#Cc1c(O)nc(SCc2cccc(F)c2F)nc1C1CC1`, the bioavailability in data set [4] was greater than 100%. Besides, the fraction unbound in [5] was less than 0.01. Also, the IC50 is 40 nM in data set [3] and 140 nM in data set [2]. Further, the solubility (thermodynamic) in data set [6] stood at 10 µg/mL (≈ 31.3 µM). In data set [7], this compound showed a pKa of 8.9. In data set [8], this compound had a half-life of 6 h. The inhibition in data set [1] is greater than 50%. In data set [9], the Vd is 0.2 L/kg. Further, the clearance in data set [10] was 1.6 mL/min/kg. `Oc1cc(C2CC2)nc(SCc2cccc(F)c2F)n1`: in data set [2], the IC50 stood at 320 nM. Regarding `CCOC(=O)[C@H]1C[C@@H]1c1nc(SCc2cccc(F)c2F)nc(O)c1C#N` (stereo in doubt; form 1), the IC50 in [2] is 320 nM.

For `Cc1nc(SCc2cccc(F)c2F)nc(O)c1C#N`, the inhibition in data set [1] is greater than 50%. For the same compound, the IC50 in [2] is 4300 nM. For `COc1ccc(-c2nc(SCc3cccc(F)c3F)nc(O)c2C#N)cc1`, in that order: greater than 50% and 710 nM.

For `N#Cc1c(O)nc(SCc2cccc(F)c2F)nc1C1CCC1`, the inhibition in data set [1] was greater than 50%. In addition, the IC50 in [2] is 1700 nM. In the case of `N#Cc1c(O)nc(SCc2cccc(F)c2F)nc1-c1ccccc1`, the IC50 in data set [2] worked out at 3700 nM.

On to `CC(C)(C)c1nc(SCc2cccc(F)c2F)nc(O)c1C#N`, for which the inhibition in data set [1] was greater than 50%. Also, in [2], the IC50 came out at 3700 nM. With `CC(C)(Sc1nc(O)c(C#N)c(C2CC2)n1)c1ccccc1`, in data set [2], the IC50 was determined as 6400 nM. On to `CC(C)Oc1ccc(-c2nc(SCc3cccc(F)c3F)nc(O)c2C#N)cc1`, for which, in data set [1], the inhibition was greater than 50%. In data set [2], the IC50 is 1600 nM. On to `CC(C)c1nc(SCc2cccc(F)c2F)nc(O)c1C#N`, for which the inhibition in data set [1] is greater than 50%. Besides, the IC50 in data set [2] is 900 nM.

Regarding `COc1ccc(-c2nc(SCc3cccc(F)c3F)nc(O)c2C#N)cc1C`, the inhibition in [1] is greater than 50%. For the same compound, the 50% inhibitory concentration (IC50) in data set [2] was 4600 nM. Consider `N#Cc1c(O)nc(CSc2cccc(F)c2F)nc1C1CC1`, for which, in [2], the IC50 is 10000 nM.

For `Cc1ccc(-c2nc(SCc3cccc(F)c3F)nc(O)c2C#N)cc1`, in data set [1], the inhibition was greater than 50%. The 50% inhibitory concentration (IC50) in data set [2] was 1400 nM. As to `CC(Sc1nc(O)c(C#N)c(C2CC2)n1)c1ccccc1` (stereo not drawn), the IC50 in [2] came out at 4800 nM.

For `N#Cc1c(O)nc(SCc2cccc(F)c2F)nc1-c1ccc(Cl)cc1`, the inhibition in data set [1] was greater than 50%. Further, the half-inhibitory concentration (IC50) in data set [2] worked out at 7400 nM. Consider `N#Cc1c(O)nc(SCc2ccccc2)nc1C1CC1`, for which the 50% inhibitory concentration (IC50) in [2] came out at 510 nM. Still for that read-out and setting: as for `CC(C)(CO)Nc1nc(SCc2cccc(F)c2F)nc(-c2ccccc2)c1C#N`, the figure is greater than 30000 nM. In the case of `Cc1cccc(-c2nc(SCc3cccc(F)c3F)nc(O)c2C#N)c1`, the inhibition in [1] was greater than 50%. The IC50 in data set [2] turned out to be 4700 nM. In the case of `CCOC(=O)[C@H]1C[C@@H]1c1nc(SCc2cccc(F)c2F)nc(O)c1C#N` (racemic), in data set [2], the IC50 was found to be 1500 nM.
